Data taken from patent US8541397B2, “Alkyne and alkene derivatives as sphingosine 1-phosphate-1 receptor modulators” (Allergan, Inc., priority 2010, dated 2013).

Target: T1, human S1P1 receptor (Homo sapiens, UniProt P21453)
T1 construct: expressed in transfected cells; membranes used
Experiment: GTP γ35S binding assay for S1P1 activity
Format: biochemical
Conditions: activity potency, S1P1 receptor from GTP γ35S binding; membranes; test compounds 0.08 to 5,000 nM
Method: Compounds were synthesized and tested for S1P1 activity using the GTP γ^35S binding assay. These compounds may be assessed for their ability to activate or block activation of the human S1P1 receptor in cells stably expressing the S1P1 receptor.
GTP γ^35S binding was measured in the medium containing (mM) HEPES 25, pH 7.4, MgCl2 10, NaCl 100, dithitothreitol 0.5, digitonin 0.003%, 0.2 nM GTP γ^35S, and 5 μg membrane protein in a volume of 150 μl. Test compounds were included in the concentration range from 0.08 to 5,000 nM unless indicated otherwise. Membranes were incubated with 100 μM 5′-adenylylimmidodiphosphate for 30 min, and subsequently with 10 μM GDP for 10 min on ice. Drug solutions and membrane were mixed, and then reactions were initiated by adding GTP γ^35S and continued for 30 min at 25° C. Reaction mixtures were filtered over Whatman GF/B filters under vacuum, and washed three times with 3 mL of ice-cold buffer (HEPES 25, pH7.4, MgCl2 10 and NaCl 100). Filters were dried and mixed with scintillant, and counted for ^35S activity using a β-counter. Agonist-induced GTP γ^35S binding was obtained by subtracting that in the absence of agonist. Binding data were analyzed using a non-linear regression method. In case of antagonist assay, the reaction mixture contained 10 nM S1P in the presence of test antagonist at concentrations ranging from 0.08 to 5000 nM.

T1 sequence (P21453 whole entry): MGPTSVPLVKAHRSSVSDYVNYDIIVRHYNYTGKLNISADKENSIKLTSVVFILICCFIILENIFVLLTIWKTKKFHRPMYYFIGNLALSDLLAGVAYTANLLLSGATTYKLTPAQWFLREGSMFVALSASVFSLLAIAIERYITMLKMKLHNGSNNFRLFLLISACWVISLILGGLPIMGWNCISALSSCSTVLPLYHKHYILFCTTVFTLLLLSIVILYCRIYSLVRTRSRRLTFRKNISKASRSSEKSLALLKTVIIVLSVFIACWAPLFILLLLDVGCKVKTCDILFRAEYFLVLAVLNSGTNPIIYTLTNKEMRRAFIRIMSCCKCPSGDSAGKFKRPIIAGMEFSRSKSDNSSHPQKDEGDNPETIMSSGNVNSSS

Compound | EC50 [nM]
COc1cccc(C(C#Cc2ccc(CNCCC(=O)O)cc2)Cc2ccc(C)c(C)c2)c1 (stereo not drawn) [Compound 1, 3-({4-[4-(3,4-dimethylphenyl)-3-(3-methoxyphenyl)but-1-yn-1-yl]benzyl}amino)propanoic acid] | 247
Cc1ccc(CC(C#Cc2ccc(CNCCC(=O)O)cc2C)c2cccc(Cl)c2)cc1C (stereo not drawn) [Compound 2, 3-{4-[3-(3-Chloro-phenyl)-4-(3,4-dimethyl-phenyl)-but-1-ynyl]-3-methyl-benzylamino}-propionic acid] | 262
Cc1ccc(CC(C#Cc2ccc(CNCCC(=O)O)cc2)c2cccc(Cl)c2)cc1C (stereo not drawn) [Compound 3, 3-({4-[3-(3-chlorophenyl)-4-(3,4-dimethylphenyl)but-1-yn-1-yl]benzyl}amino)propanoic acid] | 66
Cc1cccc(C(C#Cc2ccc(CNCCC(=O)O)cc2)Cc2ccc(C)c(C)c2)c1 (stereo not drawn) [Compound 4, 3-({4-[4-(3,4-dimethylphenyl)-3-(3-methylphenyl)but-1-yn-1-yl]benzyl}amino)propanoic acid] | 502
Cc1ccc(CC(C#Cc2ccc(CNCCC(=O)O)cc2)c2ccc(Cl)cc2)cc1C (stereo not drawn) [Compound 5, 3-({4-[3-(4-chlorophenyl)-4-(3,4-dimethylphenyl)but-1-yn-1-yl]benzyl}amino)propanoic acid] | 480
COc1cccc(C(C#Cc2ccc(CNCCCP(=O)(O)O)cc2)Cc2ccc(C)c(C)c2)c1 (stereo not drawn) [Compound 7, (3-{4-[4-(3,4-Dimethyl-phenyl)-3-(3-methoxy-phenyl)-but-1-ynyl]-benzylamino}-propyl)-phosphonic acid] | 160
Cc1ccc(CC(C#Cc2ccc(CNCCCP(=O)(O)O)cc2)c2cccc(Cl)c2)cc1C (stereo not drawn) [Compound 8, (3-{4-[3-(3-Chloro-phenyl)-4-(3,4-dimethyl-phenyl)-but-1-ynyl]-benzylamino}-propyl)-phosphonic acid] | 75.4
Cc1cccc(C(C#Cc2ccc(CNCCCP(=O)(O)O)cc2)Cc2ccc(C)c(C)c2)c1 (stereo not drawn) [Compound 9, (3-{4-[4-(3,4-Dimethyl-phenyl)-3-m-tolyl-but-1-ynyl]-benzylamino}-propyl)-phosphonic acid] | 117
Cc1ccc(CC(C#Cc2ccc(CNCCCP(=O)(O)O)cc2C)c2cccc(Cl)c2)cc1C (stereo not drawn) [Compound 10, (3-{4-[3-(3-Chloro-phenyl)-4-(3,4-dimethyl-phenyl)-but-1-ynyl]-3-methyl-benzylamino}-propyl)-phosphonic acid] | 17.7
Cc1cccc(C(C#Cc2ccc(CNCCCP(=O)(O)O)cc2C)Cc2ccc(C)c(C)c2)c1 (stereo not drawn) [Compound 11, [3-({4-[4-(3,4-dimethylphenyl)-3-(3-methylphenyl)but-1-yn-1-yl]-3 methylbenzyl}amino)propyl]phosphonic acid] | 56
Cc1ccc(CC(C#Cc2ccc(CNCCCP(=O)(O)O)cc2C)c2cccc(F)c2)cc1C (stereo not drawn) [Compound 12, [3-({4-[4-(3,4-dimethylphenyl)-3-(3-fluorophenyl)but-1-yn-1-yl]-3-methylbenzyl}amino)propyl]phosphonic acid] | 1890
Cc1ccc(CC(C#Cc2ccc(CNCCCP(=O)(O)O)cc2Br)c2cccc(F)c2)cc1C (stereo not drawn) [Compound 13, [3-({3-bromo-4-[4-(3,4-dimethylphenyl)-3-(3-fluorophenyl)but-1-yn-1-yl]benzyl}amino)propyl]phosphonic acid] | 6
Cc1ccc(CC(C#Cc2ccc(CNCCCP(=O)(O)O)cc2-c2ccco2)c2cccc(F)c2)cc1C (stereo not drawn) [Compound 14, [3-({4-[4-(3,4-dimethylphenyl)-3-(3-fluorophenyl)but-1-yn-1-yl]-3-(2-furyl)benzyl}amino)propyl]phosphonic acid] | 239
Cc1cccc(C(C#Cc2ccc(CNCCCP(=O)(O)O)cc2-c2cccs2)Cc2ccc(C)c(C)c2)c1 (stereo not drawn) [Compound 15, [3-({4-[4-(3,4-dimethylphenyl)-3-(3-methylphenyl)but-1-yn-1-yl]-3-(2-thienyl)benzyl}amino)propyl]phosphonic acid] | 179
Cc1ccc(CC(C#Cc2ccc(CNCCCP(=O)(O)O)cc2Br)c2cc(F)cc(F)c2)cc1C (stereo not drawn) [Compound 16, [3-({3-bromo-4-[3-(3,5-difluorophenyl)-4-(3,4-dimethylphenyl)but-1-yn-1-yl]benzyl}amino)propyl]phosphonic acid] | 31
Cc1cccc(C(C#Cc2ccc(CNCCCP(=O)(O)O)cc2-c2ccco2)Cc2ccc(C)c(C)c2)c1 (stereo not drawn) [Compound 17, [3-({4-[4-(3,4-dimethylphenyl)-3-(3-methylphenyl)but-1-yn-1-yl]-3-(2-furyl)benzyl}amino)propyl]phosphonic acid] | 59
Cc1ccc(CC(C#Cc2ccc(OCC(O)CO)c(Cl)c2)c2cccc(Cl)c2)cc1C (stereo not drawn) [Compound 19, 3-{2-chloro-4-[3-(3-chlorophenyl)-4-(3,4-dimethylphenyl)but-1-yn-1-yl]phenoxy}propane-1,2-diol] | 238
Cc1ccc(CC(C#Cc2ccc(OCC(O)CO)c(Cl)c2)c2cccc(F)c2)cc1C (stereo not drawn) [Compound 20, 3-{2-chloro-4-[4-(3,4-dimethylphenyl)-3-(3-fluorophenyl)but-1-yn-1-yl]phenoxy}propane-1,2-diol] | 600
Cc1cccc(C(C#Cc2ccc(OCC(O)CO)c(Cl)c2)Cc2ccc(C)c(C)c2)c1 (stereo not drawn) [Compound 21, 3-{2-chloro-4-[4-(3,4-dimethylphenyl)-3-(3-methylphenyl)but-1-yn-1-yl]phenoxy}propane-1,2-diol] | 401
Cc1ccc(CC(/C=C/c2ccc(CNCCC(=O)O)cc2)c2cccc(F)c2)cc1C (stereo not drawn) [Compound 22, 3-({4-[(1E)-4-(3,4-dimethylphenyl)-3-(3-fluorophenyl)but-1-en-1-yl]benzyl}amino)propanoic acid] | 265
Cc1ccc(CC(/C=C/c2ccc(CNCCCP(=O)(O)O)cc2)c2cccc(F)c2)cc1C (stereo not drawn) [Compound 23, [3-({4-[(1E)-4-(3,4-dimethylphenyl)-3-(3-fluorophenyl)but-1-en-1 yl]benzyl}amino)propyl]phosphonic acid] | 172
